Experimental data as given in patent US7700584B2 (Hangzhou Minsheng Pharmaceuticals Co., Ltd., priority 2004, dated 2010).

What was measured:
Hepatitis B virus (HBV) = type: cell-based; conditions: 200 μg/ml; for (Value of the positive control - Measured Value) Value of the positive control × 100%: decrease of HBeAg relative to positive control; for OD450 of HBeAg: supernatant four days after infection, positive control 1.917, negative 0.057
HepG2 cells = assay: Cell status of HepG2 cells treated with sample (HBV screening); type: cell-based; conditions: 200 μg/ml, HepG2, four days after infection
Protocol: 1.5 Screening for the agents: The HepG2 cells were counted and 1.5×10^4 cells/well were seeded into a 96-well plate. After incubation overnight in an atmosphere of CO2 at 37° C., each of the experimental samples in a given concentration was added to the cells. After incubation at 37 °C for 24 hrs, the HepG2 treated with the samples were infected with vAcGFPHBVc of 100 MOI. A negative control and a positive control were also included. Four days after infection, the growth of the cells were observed, and the HBV e antigen in the supernatant was measured with the HBV e antigen diagnostic kit.

[1] = system: eight selected tumor cell lines; assay: In vitro anti-tumor IC50, summary over the selected tumor cell lines; type: cell-based; conditions: Hela and U-937, also U-937 and HL-60 cell lines
Protocol: (1) Single cell suspension was seeded into 96-well plates (the cells was diluted in the PRMI-1640 minimum medium to 3×10^4 cells/ml, […] diluted cells/well). […] The experiments were performed in quadruplicate.
(2) The medium was removed. Solutions of the anti-tumor agents (50 compounds) were prepared in a freshly prepared medium at serial concentrations. […] of the solution was added into each well. Incubation was continued for 48 hours.
(3) 20 ug of 2 mg/ml MTT was added into each well, and incubated for 4 hours.
(4) The medium was removed from the well. The microplates were swiftly turned down to throw-off the medium. […] of DMSO was added into each well, and vortexed at room temperature for 10 minutes.
(5) OD value (λ=570 nm) was measured with an Enzyme-Linked Detector.
(6) The graph of cell vitality was plotted, and IC50 was calculated.

MDCK (dog kidney) cells = assay: Toxicity TC50 of the samples in MDCK cells (influenza screening); conditions: concentration of 50% toxicity, given as dilution of the stock solution

Row | SMILES | (Value of the positive control - Measured Value) Value of the positive control × 100% (Hepatitis B virus (HBV)) | OD450 of HBeAg (Hepatitis B virus (HBV)) | Cell status (HepG2 cells) | activity to Hela, U-937 and HL-60 cell lines (in words) [1] | TC50 (MDCK (dog kidney) cells)
1 | C=C1CC2(OS(=O)(=O)O)OC3(CC2C(C)C)C(C)CCC13 (centres unmarked) [Compound 20, Curcumol sulfonate] | −14.8148% | 2.201 | Normal | – | –
2 | CC(C)C1CC23OC1(O)CC(=CN1CCNCC1)C2CCC3C (centres unmarked) [Compound 7, Curcumol piperazine] | – | – | – | excellent activity | –
3 | CC(C)C1CC23OC1(O)CC(=CBr)C2CCC3C (centres unmarked) [Compound 17, Curcumol monobromide] | 96.19% | 0.073 | Poor | – | –
4 | C=C1CC2(OC(=O)C(C)C)OC3(CC2C(C)C)C(C)CCC13 (centres unmarked) [Compound 3, Curcumol isobutyrate] | −36.1502% | 2.61 | Normal | – | 1/8403 of the stock solution
